Source: patent publication US4383113A, “Agricultural sulfonamides” (E. I. Du Pont de Nemours and Company, priority 1981, dated 1983)

What was measured:
Experiment in all cases: Test A post-emergence
Parameters in all cases: key: 0 = no effect, 10 = maximum effect; letter = response symbol
bush bean = assay type: in vivo, bush beans; conditions: 0.4 kg/ha
morningglory = assay type: in vivo, Ipomoea spp.
How it was run: (§1)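 Seeds and tubers were treated preemergence in a growth medium with compound in a nonphytotoxic solvent, against untreated controls; emerged plants such as two-leaf barnyardgrass and five-leaf cotton were sprayed postemergence, against solvent-sprayed controls. After sixteen days in a greenhouse, response was rated visually from 0 to 10.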

cocklebur = assay type: in vivo, Xanthium spp.
How it was run: as §1

cassia = assay type: in vivo, Cassia tora
How it was run: as §1

nutsedge = assay type: in vivo, Cyperus rotundus
How it was run: as §1

crabgrass = assay type: in vivo, Digitaria spp.
How it was run: as §1

barnyardgrass = assay type: in vivo, Echinochloa crusgalli
How it was run: as §1

corn = assay type: in vivo
How it was run: as §1

rice = assay type: in vivo
How it was run: as §1

sorghum = assay type: in vivo
How it was run: as §1

soybean = assay type: in vivo
How it was run: as §1

wild oats = assay type: in vivo, Avena fatua
How it was run: as §1

wheat = assay type: in vivo
How it was run: as §1

cotton = assay type: in vivo
How it was run: as §1

| Structure (SMILES) | response rating (bush bean) | response rating (morningglory; 0.4 kg/ha) | response rating (cocklebur; 0.4 kg/ha) | response rating (cassia; 0.4 kg/ha) | response rating (nutsedge; 0.4 kg/ha) | response rating (crabgrass; 0.4 kg/ha) | response rating (barnyardgrass; 0.4 kg/ha) | response rating (corn; 0.4 kg/ha) | response rating (rice; 0.4 kg/ha) | response rating (sorghum; 0.4 kg/ha) | response rating (soybean; 0.4 kg/ha) | response rating (wheat; 0.4 kg/ha) | response rating (wild oats; 0.4 kg/ha) | other results |
| --- | --- | --- | --- | --- | --- | --- | --- | --- | --- | --- | --- | --- | --- | --- |
| COC(=O)c1ccccc1S(=O)(=O)NC(=O)Nc1nc(OC)nc(OC)n1 [drawing 416] | 9C | 10C | 9C | 9C | 9C | 9C | 10C | 10C | 10C | 9C | 9C |  |  |  |
| COC(=O)c1ccccc1S(=O)(=O)NC(=O)Nc1nnc(C)c(C)n1 [drawing 417] |  |  |  |  |  |  |  |  |  |  |  |  |  | response rating (cocklebur; 2 kg/ha): 9C; response rating (cassia; 2 kg/ha): 9C; response rating (nutsedge; 2 kg/ha): 9C; response rating (crabgrass; 2 kg/ha): 9C; response rating (barnyardgrass; 2 kg/ha): 9C; response rating (wild oats; 2 kg/ha): 9C; response rating (rice; 2 kg/ha): 9C; response rating (sorghum; 2 kg/ha): 9C; response rating (soybean; 2 kg/ha): 9C; response rating (wheat; 2 kg/ha): 10C |
| COc1nc(NC(=O)NS(=O)(=O)c2ccccc2C(=O)OCCCl)nc(OC)n1 [drawing 422] | 9C | 10C | 10C | 10C | 10C | 2C |  |  | 6G |  |  | 1C |  | response rating (cotton; 0.4 kg/ha): 9C |
| CCCCCCCCCCOC(=O)c1ccccc1S(=O)(=O)NC(=O)Nc1nc(OC)cc(OC)n1 [drawing 427] |  | 1C |  | 5G | 2G | 2G |  |  | 8G | 9G | 1H | 1C | 1C |  |
| CCCCCCCCCCOC(=O)c1ccccc1S(=O)(=O)NC(=O)Nc1nc(OC)nc(OC)n1 [drawing 429] |  |  |  | 5G | 3G | 3G | 1C | 6H | 2G | 7H | 7G | 0 | 0 |  |
| CCCCCCCCCCOC(=O)c1ccccc1S(=O)(=O)NC(=O)Nc1nc(C)nc(OC)n1 [drawing 430] |  |  |  |  | 2G | 0 | 2H | 7H | 6G |  | 6H | 0 | 0 |  |
| COc1nc(NC(=O)NS(=O)(=O)c2ccccc2C(=O)OC2CCCCC2)nc(OC)n1 [drawing 432] |  |  |  | 5C | 2G | 0 |  | 6H | 2G | 3G |  | 0 | 0 |  |
| COc1cc(OC)nc(NC(=O)NS(=O)(=O)c2ccccc2C(=O)OC(C)C)n1 [drawing 436] |  | 10C | 10C | 9C | 9C | 6C | 9C |  | 7C | 9C |  |  | 6C | response rating (cotton; 0.4 kg/ha): 9C |
| COc1cc(C)nc(NC(=O)NS(=O)(=O)c2ccccc2C(=O)OC(C)C)n1 [drawing 437] |  | 9C | 10C | 9C | 9C |  | 10C | 9C | 8C | 10C |  |  |  | response rating (cotton; 0.4 kg/ha): 10C |
| COc1nc(NC(=O)NS(=O)(=O)c2ccccc2C(=O)OC(C)C)nc(OC)n1 [drawing 438] |  | 10C | 10C | 9C | 9C | 6G | 8C |  | 8C |  |  | 2C | 2C | response rating (cotton; 0.4 kg/ha): 9C |
| CCCCOC(=O)c1ccccc1S(=O)(=O)NC(=O)Nc1nc(OC)cc(OC)n1 [drawing 439] |  | 9C | 9C |  |  |  | 9C |  |  |  |  |  |  | response rating (morningglory; 2 kg/ha): 10C; response rating (cocklebur; 2 kg/ha): 9C; response rating (cassia; 2 kg/ha): 9C; response rating (nutsedge; 2 kg/ha): 9C; response rating (barnyardgrass; 2 kg/ha): 10C; response rating (wild oats; 2 kg/ha): 9C; response rating (corn; 2 kg/ha): 9C; response rating (cotton; 2 kg/ha): 9C; response rating (rice; 2 kg/ha): 9C; response rating (sorghum; 2 kg/ha): 9C; response rating (wheat; 2 kg/ha): 9C |
| CCCCOC(=O)c1ccccc1S(=O)(=O)NC(=O)Nc1nc(C)cc(OC)n1 [drawing 440] |  | 9C | 9C |  |  | 3G | 10C |  |  |  |  |  | 8G | response rating (morningglory; 2 kg/ha): 10C; response rating (cocklebur; 2 kg/ha): 10C; response rating (cassia; 2 kg/ha): 9C; response rating (nutsedge; 2 kg/ha): 9C; response rating (barnyardgrass; 2 kg/ha): 10C; response rating (corn; 2 kg/ha): 9C; response rating (rice; 2 kg/ha): 8C; response rating (sorghum; 2 kg/ha): 9C; response rating (soybean; 2 kg/ha): 9C; response rating (wheat; 2 kg/ha): 8C |
| CCOC(=O)c1ccccc1S(=O)(=O)NC(=O)Nc1nc(OC)cc(OC)n1 [drawing 442] |  | 10C | 9C | 9C | 9C |  | 10C | 9C | 9C | 9C |  | 9C | 9C | response rating (cotton; 0.4 kg/ha): 9C |
| Cc1cc(C)nc(NC(=O)NS(=O)(=O)c2ccccc2C(=O)O)n1 [drawing 444] |  |  |  |  |  | 2G |  |  |  |  |  |  |  | response rating (barnyardgrass; 10 kg/ha): 2G; response rating (rice; 10 kg/ha): 5G; response rating (sorghum; 10 kg/ha): 3G; response rating (soybean; 10 kg/ha): 1C |
| C=CCOC(=O)c1ccccc1S(=O)(=O)NC(=O)Nc1nc(C)nc(OC)n1 [drawing 451] | 9C | 10C | 10C | 9C |  |  | 9C | 9C | 9C | 9C | 9C | 9C | 9C |  |
| COC(=O)c1cc(Cl)c(Cl)cc1S(=O)(=O)NC(=O)Nc1nc(C)cc(OC)n1 [drawing 452] |  |  |  | 2C | 6G | 2G | 7H | 2G | 2C | 5G |  | 0 | 0 |  |
| COc1cc(C)nc(NC(=O)NS(=O)(=O)c2ccccc2C(=O)N(C)C)n1 [drawing 465] |  | 10C |  | 9C |  |  | 10C | 9C | 9C | 9C | 9C | 9C | 9C |  |
| COC(=O)c1ccccc1S(=O)(=O)NC(=O)Nc1nc(OC)cc(OC(C)C(=O)OC)n1 (centres unmarked) [drawing 468] | 9C | 9C |  | 9C | 9C | 9C | 9C | 9C | 9C | 9C | 9C | 9C | 9C |  |
| CCOCCSc1cc(C)nc(NC(=O)NS(=O)(=O)c2ccccc2C(=O)OC)n1 [drawing 469] | 9C |  | 2C |  | 8G |  |  | 9H | 8G | 9G |  | 6G |  |  |
| COCCCOc1cc(C)nc(NC(=O)NS(=O)(=O)c2ccccc2C(=O)OC)n1 [drawing 470] | 9C |  |  | 9C | 9C | 9C | 9C | 9C | 8C | 9C | 8C |  |  |  |
| COc1cc(C)nc(NC(=O)NS(=O)(=O)c2ccccc2C(=O)SC2CCCCC2)n1 [drawing 476] | 9C | 10C | 9C | 9C | 10C |  | 9C |  | 9C | 9C |  |  | 9C | response rating (cotton; 0.4 kg/ha): 9C |
